Patent publication US4788206A, “Pentadieneamides” (Hoffmann-La Roche Inc., priority 1987, dated 1988)
Like-named read-outs stand apart in the source and are kept apart here.

Assays:
[1] = molecular target: T1, PAF Binding, dog platelets (Canis lupus familiaris, UniProt A0A8I3NSH0); assay: PAF Binding Assay (inhibition of 3H-PAF binding to washed dog platelets)
T1 construct: Washed platelets were prepared by resuspending the platelet pellet once with PBS containing 1 mM EDTA; from tissue; host or cells: washed platelets from dog blood
T1 sequence (A0A8I3NSH0 1-343): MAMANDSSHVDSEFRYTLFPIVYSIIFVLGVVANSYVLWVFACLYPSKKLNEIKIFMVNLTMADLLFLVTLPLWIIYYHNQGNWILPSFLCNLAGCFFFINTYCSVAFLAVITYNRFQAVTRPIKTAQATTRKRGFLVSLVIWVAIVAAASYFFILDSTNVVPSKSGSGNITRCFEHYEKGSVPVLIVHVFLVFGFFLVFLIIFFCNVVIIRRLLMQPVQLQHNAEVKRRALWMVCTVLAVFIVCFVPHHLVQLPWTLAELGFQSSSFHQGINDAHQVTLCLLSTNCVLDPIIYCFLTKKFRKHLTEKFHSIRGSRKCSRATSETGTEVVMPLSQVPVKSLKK
Procedure: The binding assay was done in 400 μl polyethylene microcentrifuge tubes (Beckman) containing 50 μl of an oil mixture of 2 parts Siliconol AR200 (Serva): 1 part Silicone Fluid (Arthur H. Thomas). Buffer, standards, or analogs (150 μl total volume) were added to the tubes. Radiolabelled ^3 H-PAF (50 μl) was then added to the tubes. The reaction was started by the addition of 50 μl of dog platelets (2×10^7 platelets). The tubes were capped, inverted several times to mix, and incubated for 10 minutes at room temperature. The platelets were separated from the incubation mixture by centrifuging 1 minute in a Beckman Microfuge B centrifuge. The tip of the microfuge tube was cut off, and the platelets were washed out of the tip with 200 μl of 50% methanol (Burdick and Jackson). Aquasol (NEN, 10 ml) was added and the radioactivity in the samples was determined using an LS 8100 Beckman liquid scintillation counter linked to a Techtran tape recorder. Data was processed through an in-house computer system. Alternatively, radioactivity was determined using a Searle Mark III liquid scintillation counter linked to a Iso-Data microprocessor.
(b) Preparation of Platelets
Blood was collected from anesthesized or unanesthesized dogs into 50 ml plastic centrifuge tubes containing 3.8% sodium citrate as the anticoagulant (1 volume of citrate/9 volumes of blood). The red cells were removed by centrifugation for 15 minutes at 600 rpm (100-125 g) at room temperature. An aliquot of the supernatant platelet rich plasma (PRP) was saved for cell counting and the remainder was acidified to PH 6.5 with 0.15M citric acid. The platelet pellet was obtained after a 10 minute centrifugation at 2000 rpm (1000 g) at room temperature. Washed platelets were prepared by resuspending the platelet pellet once with PBS containing 1 mM EDTA, centrifuging as noted, and then resuspending the platelets in 0.1% BSA-PBS. An aliquot of the washed platelets was counted. Platelets used for binding assays were diluted to 2×10^7 platelets/assay tube (4×10^8 platelets/ml). Platelet counting was done using a Royco Cell-Crit 921.

[2] = system: PAF-Induced Bronchoconstriction; assay: PAF Induced Bronchoconstriction Assay; assay type: in vivo, guinea pig; settings: for inhibition in vivo at 50 mg/kg: Cavia porcellus, po, 50 mg/Kg p.o., 2-hour pretreatment, read-out: Percent Inhib. of PAF-Induced Bronchoconstriction, 50 mg/Kg p.o.; for Percent Inhib. of PAF-Induced Bronchoconstriction, mg/Kg i.v.: i.v. (dose not given), 1 minute pretreatment, PAF 1.0 μg/kg i.v.
Procedure: PAF Induced Bronchoconstriction Assay
Male animals (Hartlet Strain 400-500 g) were anesthetized with urethane (2 g/kg. i.p.). Each animals' trachea was cannulated and the guinea pigs were repirated using a Harvard small animal rodent respirator (3.0 cc stroke volume, 40 breaths per min.). Tracheal pressure was recorded from a cannula inserted in the trachea and connected to a Statham Pressure Transducer.
The jugular vein was cannulated for administering compounds. Spontaneous breathing was arrested with succinylcholine (1.2 mg/kg. i.v.) administered 2 minutes prior to intravenous injection of platelet activating factor (PAF).
For, the intravenous testing, the guinea pig is given a 5-minute pretreatment with propranolol at a dose of 0.1 mg/kg intravenously. The test compound is administered with a 1 minute pretreatment prior to intravenous challenge with PAF. The animal is than challenged with a 1.0 μg/kg intravenous dose of PAF and the change is tracheal pressure is measured.
For the oral testing, the procedure includes a 2-hour pretreatment period with the test compound administered through an oral gavage tube. Propranolol or succinylcholine and PAF are administered intravenously, and the change in tracheal pressure measured.
The change is tracheal pressure is determined by subtracting the steady state baseline achieved after administration of succinylcholine from the peak bronchoconstriction seen after challenge with PAF. The mean is calculated for each test compound and compared to the mean of the control animals to give the percent inhibition of bronchoconstriction. The standard error is calcuated as the standard error of the mean.

[3] = dog platelets, 3H-PAF, 10 minutes at room temperature, read-out: Inhib of PAF Binding IC50

For CCC(CCCc1cccnc1)NC(=O)/C=C/C=C(c1ccc(OC)cc1)c1ccc(OC)cc1 (racemic) [[R,S-(E)]-N-1-ethyl-4-(3-pyridinyl)butyl]-5,5-bis(4-methoxyphenyl)-2,4-pentadienamide], the IC50 [1, 3] was 90 nM, the inhibition in vivo at 50 mg/kg [2] was 99 ± 1% and the “Percent Inhib. of PAF-Induced Bronchoconstriction, mg/Kg i.v.” value [2] was 86 ± 8%.
COc1ccc(C(=C/C=C/C(=O)NC(CCCc2cccnc2)c2ccc(Br)cc2)c2ccc(OC)cc2)cc1 (racemic) [[R,S-(E)]-N-[1-(4-bromophenyl)-4-(3-pyridinyl)butyl]-5,5-bis(4-methoxyphenyl)2.4-pentadienamide] was tested, and the IC50 [1, 3] was over 1000 nM and the “Percent Inhib. of PAF-Induced Bronchoconstriction, mg/Kg i.v.” value [2] was 6 ± 13%.
For CCCCC(CCCc1cccnc1)NC(=O)/C=C/C=C(c1ccc(OC)cc1)c1ccc(OC)cc1 (racemic) [[R,S-(E)]-N-[1-butyl-4-(3-pyridinyl)butyl]-5,5-bis(4-methoxyphenyl)-2,4-pentadienamide], the IC50 [1, 3] was over 1000 nM and the “Percent Inhib. of PAF-Induced Bronchoconstriction, mg/Kg i.v.” value [2] was 42 ± 7%.
In the case of COc1ccc(C(=C/C=C/C(=O)NC(CCCc2cccnc2)C2CCCCC2)c2ccc(OC)cc2)cc1 (racemic) [[R,S-(E)]-N-[1-cyclohexyl-4-(3-pyridinyl)butyl]-5,5-bis(4-methoxyphenyl)-2,4-pentadienamide], the IC50 [1, 3] is reported as over 1000 nM and the “Percent Inhib. of PAF-Induced Bronchoconstriction, mg/Kg i.v.” value [2] is reported as 11 ± 15%.
For COc1ccc(C(=C/C=C/C(=O)NC(CCCc2cccnc2)C2CCCC2)c2ccc(OC)cc2)cc1 (racemic) [[R,S-(E)]-N-[1-cyclopentyl-4-(3-pyridinyl)butyl]-5,5-bis-(4-methoxyphenyl)-2,4-pentadienamide], the IC50 [1, 3] was over 1000 nM and the “Percent Inhib. of PAF-Induced Bronchoconstriction, mg/Kg i.v.” value [2] was 19 ± 14%.
For COc1ccc(C(=C/C=C/C(=O)NC(CCCc2cccnc2)C2CC2)c2ccc(OC)cc2)cc1 (racemic) [[R,S-(E)]-N-[1-cyclopropyl-4-(3-pyridinyl)butyl]-5,5-bis-(4-methoxyphenyl)-2,4-pentadienamide], the IC50 [1, 3] was 60 nM, the inhibition in vivo at 50 mg/kg [2] was 99 ± 0.3% and the “Percent Inhib. of PAF-Induced Bronchoconstriction, mg/Kg i.v.” value [2] was 98 ± 1%.
With CCCCC/C(=C\C=C\C(=O)NC(C)CCCc1cccnc1C)c1ccc(OC)cc1 (racemic) [[R,S-(E,E)]-5-(4-methoxyphenyl)-N-[1-methyl-4-(2-methyl-3-pyridinyl)butyl]-2,4-decadienamide] the IC50 [1, 3] was 5 nM and the “Percent Inhib. of PAF-Induced Bronchoconstriction, mg/Kg i.v.” value [2] was 77 ± 5%.
For COc1ccc(/C(=C/C=C/C(=O)NCCCCc2cccnc2)c2ccccc2OC)cc1 [(2E,4Z)-5-(2-methoxyphenyl)-5-(4-methoxyphenyl)-N-[4-(3-pyridinyl)butyl]-2,4-pentadienamide], the IC50 [1, 3] was 55 nM and the “Percent Inhib. of PAF-Induced Bronchoconstriction, mg/Kg i.v.” value [2] was 36 ± 6%.
For COc1ccc(/C(=C/C=C/C(=O)NCCCCc2cccnc2)c2cccnc2)cc1 [(2E,4Z)-5-(4-methoxyphenyl)-5-(3-pyridinyl)-N-[4-(3-pyridinyl)butyl]-2,4-pentadienamide], the IC50 [1, 3] was 50 nM, the inhibition in vivo at 50 mg/kg [2] was 39 ± 8% and the “Percent Inhib. of PAF-Induced Bronchoconstriction, mg/Kg i.v.” value [2] was 78 ± 10%.
CCCCC/C(=C/C=C/C(=O)NCCCCc1cccnc1)c1ccc(OC)cc1 [(2E,4Z)-5-(4-methoxyphenyl)-N-[4-(3-pyridinyl)butyl]-2,4-decadienamide] was tested, and the IC50 [1, 3] was 40 nM and the “Percent Inhib. of PAF-Induced Bronchoconstriction, mg/Kg i.v.” value [2] was 68 ± 11%.
With COc1ccccc1C(=C/C=C/C(=O)NCCCCc1cccnc1)c1ccccc1OC [(E)-5,5-bis (2-methoxyphenyl)-N-[4-(3-pyridinyl)butyl]-2,4-pentadienamide] the IC50 [1, 3] was 40 nM and the “Percent Inhib. of PAF-Induced Bronchoconstriction, mg/Kg i.v.” value [2] was 40 ± 2%.
With COc1ccc(C(=C/C=C/C(=O)NCCCCc2cccnc2)c2ccc(OC)c(OC)c2)cc1OC [(E)-5,5-bis(3,4-Dimethoxyphenyl)-N-[4-(3-pyridinyl)butyl]-2,4-pentadienamide] the IC50 [1, 3] was 55 nM, the inhibition in vivo at 50 mg/kg [2] was 71 ± 2% and the “Percent Inhib. of PAF-Induced Bronchoconstriction, mg/Kg i.v.” value [2] was 78 ± 6%.
For O=C(/C=C/C=C(c1cccc([N+](=O)[O-])c1)c1cccc([N+](=O)[O-])c1)NCCCCc1cccnc1 [(E)-5,5-bis(3-nitrophenyl)-N-[4-(3-pyridinyl)butyl)-2,4-pentadienamide], the IC50 [1] was 115 nM and the “Percent Inhib. of PAF-Induced Bronchoconstriction, mg/Kg i.v.” value [2] was 18 ± 2%.
COc1ccc(C(=C/C=C/C(=O)NCCCc2ccncc2)c2ccc(OC)cc2)cc1 [(E)-5,5-bis(4-methoxyphenyl)-N-[3-(4-pyridinyl)propyl]-2,4-pentadienamide] was tested, and the IC50 [1, 3] was 100 nM and the “Percent Inhib. of PAF-Induced Bronchoconstriction, mg/Kg i.v.” value [2] was 8 ± 12%.
In the case of COc1ccc(C(=C/C=C/C(=O)Nc2ccc(Cc3cccnc3)cc2)c2ccc(OC)cc2)cc1 [(E)-5,5-bis(4-methoxyphenyl)-N-[4-(3pyridinylmethyl)phenyl]-2,4-pentadienamide], the IC50 [1, 3] is reported as 250 nM and the “Percent Inhib. of PAF-Induced Bronchoconstriction, mg/Kg i.v.” value [2] is reported as 3 ± 7%.
With COc1ccc(C(=C/C=C/C(=O)NCCCCCc2ccccn2)c2ccc(OC)cc2)cc1 [(E)-5,5-bis(4-methoxyphenyl)-N-[5-(2-pyridinyl)pentyl]-2,4-pentadienamide] the IC50 [1, 3] was 1000 nM and the “Percent Inhib. of PAF-Induced Bronchoconstriction, mg/Kg i.v.” value [2] was 27 ± 6%.
With COc1ccc(C(=C/C=C/C(=O)NC(CCCc2cccnc2)CCCc2cccnc2)c2ccc(OC)cc2)cc1 [(E)-5,5-bis-(4-methoxyphenyl)-N-[1-[3-(3-pyridinyl)propyl]-4-(3-pyridinyl)-butyl]-2,4-pentadienamide] the IC50 [1, 3] was 500 nM and the “Percent Inhib. of PAF-Induced Bronchoconstriction, mg/Kg i.v.” value [2] was 50 ± 15%.
For COc1ccc(C(=C/C=C/C(=O)Nc2ccc(-c3cccnc3)cc2)c2ccc(OC)cc2)cc1 [(E)-5,5-bis-(4-methoxyphenyl)-N-[4-(3-pyridinyl)phenyl]-2,4-pentadienamide], the IC50 [1, 3] was 10 nM, the inhibition in vivo at 50 mg/kg [2] was 84 ± 8% and the “Percent Inhib. of PAF-Induced Bronchoconstriction, mg/Kg i.v.” value [2] was 97 ± 1%.
COc1ccc(/C(=C\C=C\C(=O)NCCCCc2cccnc2)c2ccccc2OC)cc1 [(E,E)-5-(2-methoxyphenyl)-5-(4-methoxyphenyl)-N-[4-(3-pyridinyl)butyl]-2,4-pentadienamide] was tested, and the IC50 [1, 3] was 45 nM, the inhibition in vivo at 50 mg/kg [2] was 21 ± 7% and the “Percent Inhib. of PAF-Induced Bronchoconstriction, mg/Kg i.v.” value [2] was 80 ± 5%.
With COc1ccc(/C(=C\C=C\C(=O)NCCCCc2cccnc2)c2cccnc2)cc1 [(E,E)-5-(4-methoxyphenyl)-5-(3-pyridinyl)-N-[4-(3-pyridinyl)butyl]-2,4-pentadienamide] the IC50 [1, 3] was 25 nM, the inhibition in vivo at 50 mg/kg [2] was 85 ± 8% and the “Percent Inhib. of PAF-Induced Bronchoconstriction, mg/Kg i.v.” value [2] was 97 ± 0.6%.
For CCCCC/C(=C\C=C\C(=O)NCCCCc1cccnc1)c1ccc(OC)cc1 [(E,E)-5-(4-methoxyphenyl)-N-[4-(3-pyridinyl)butyl]-2,4-decadienamide], the IC50 [1, 3] was 15 nM, the inhibition in vivo at 50 mg/kg [2] was 26 ± 2% and the “Percent Inhib. of PAF-Induced Bronchoconstriction, mg/Kg i.v.” value [2] was 99 ± 1%.
For CCCCC/C(=C/C=C/C(=O)N[C@H](C)CCCc1cccnc1)c1cccc(F)c1 [[R-(2E,4Z)]-5-(3-fluorophenyl)-N-[1-methyl-4-(3-pyridinyl)butyl]-2,4-decadienamide], the IC50 [1, 3] was 105 nM and the “Percent Inhib. of PAF-Induced Bronchoconstriction, mg/Kg i.v.” value [2] was 93 ± 1%.
